# Source: patent publication US8071716B2, “Thymus-specific protein” (Immune System Key Ltd., priority 2004, dated 2011)
# Where no end group is shown, it is not given here.
# Experiments:
# [1] = Solubility in aqueous solution; assay type: physicochemical
# [2] = tested on: human peripheral blood lymphocytes (PBL); assay: BrdU incorporation proliferation assay in human PBL; assay type: cell-based; conditions: for proliferation stimulating activity, in words: conclusions from Table 1
# Method: The T101 peptide was tested for its ability to activate proliferation of mouse spleenocytes or thymocytes (two mouse strains were used: CD1 and Balb/C), as well as human peripheral blood lymphocytes (PBL). The proliferation activity was measured by 5-bromo 2′-deoxy-uridine (BrdU) incorporation into these cells.
# Human PBL were isolated on a Ficole gradient from blood taken from volunteers and then plated in 96-well plates, again using RPMI 1640+10% FCS+Pen/Str.
# The cells were treated with different concentrations of the peptide or saline (as above) and after 48 hours were labeled for 6 hours with BrdU and tested for BrdU incorporation into their nucleus.
# In the next experiment, several deletion mutants of the T101 peptide were constructed and synthesized. These mutants were tested for their ability to stimulate proliferation in human PBL. The right-hand column indicates the fold increase in proliferation over proliferation in untreated cells.
Substance,solubility in an aqueous solution [1],Fold Increase in proliferation over proliferation in untreated cells [2],"proliferation stimulating activity, in words [2]"
LHLWLSGEPVQSSGTKDMRSKSDSKRVSDKQLISKAVWWTFFLPSTLWERK [T101 peptide],soluble,,
Mut #1: 13 C-terminal amino acids of the T101 peptide: WTFFLPSTLWERK (listed as Homo sapiens),,2.5-3 Fold,very active
Mut #2: amino acids 6 to 28 of the T101 peptide: SGEPVQSSGTKDMRSKSDSKRVS (listed as Homo sapiens),,1.4-1.6 Fold,relatively low activity
Mut #3: 23 C-terminal amino acids of the T101 peptide: DKQLISKAVWWTFFLPSTLWERK (listed as Homo sapiens),,2.2-2.8 Fold,very active
Mut #4: 8 C-terminal amino acids of the T101 peptide: PSTLWERK (Table 1 prints PSTLTWERK) (listed as Homo sapiens),,1.1-1.3 Fold,almost no activity
Mut #5: amino acids 36 to 48 of the T101 peptide: AVWWTFFLPSTLW (listed as Homo sapiens),,2-2.2 Fold,
Mut #6: amino acids 36 to 51 of the T101 peptide in the reverse order: KREWLTSPLFFTWWVA (listed as Homo sapiens),,2-2.4 Fold,
